Reference: patent publication US8222282B2, “Sulfonate salts of 2-amino-3-carbethoxyamino-6-(4-fluoro-benzylamino)-pyridine” (Teva Pharmaceuticals USA, Inc., priority 2008, dated 2012)

Columns and labels:
Type in all cases: physicochemical
[1] = Bulk density of flupirtine salts; conditions: volume per 100.0 g of sample material
Procedure: The bulk density was determined as follows: Without increasing its density, sample material (about 4 grams) was introduced into a 10 ml measuring cylinder (±0.2 ml). The volume and the exact weight of the introduced sample material were determined. The bulk density was calculated as volume per 100.0 g of sample material.

[2] = Solubility in demineralised water (photometric); conditions: 60 min stirring at 20° C.; for solubility thermodynamic at 60 min: demineralised water
Procedure: […] Subsequently, an aliquot of the solution was centrifuged at 10,000 rpm and the flupirtine absorption was photometrically determined in the supernatant. The amount of flupirtine in solution was calculated with a response factor (absorption/mg substance).

[3] = Oxidative stability: HPLC of flupirtine salts after storage at room temperature under open air; conditions: exposed to air, 30 days at room temperature; in contrast to maleate, gluconate or inorganic salts
[4] = as above; conditions: for decrease of area under the peak of the flupirtine signal: 0 to 14 days, room temperature, open air; for Flupirtine signal after 14 days (area under the peak in, %): HPLC after 14 days of storage at room temperature under open air; for Flupirtine signal after 0 days (area under the peak in, %): HPLC after isolation and drying
Procedure: HPLC Method [table] HPLC analysis was performed after isolation and drying of flupirtine maleate form A and flupirtine sulfonate salts and repeated after 14 days of storage at room temperature under open air.

[5] = Discolouration measurements, optical comparison with RAL scale of colours; conditions: 60° C. and 70° C., alone and in mixture with MCC, lactose or DiCaPhos, dry and 100% rh
Procedure: Discolouration was measured using optical comparison with a standard: the RAL scale of colours (see list). The colour changes during the experiment were compared to this standard list and the appropriate value was noted. The intensity was increasing on a scale ranging from 1 to 10.
A higher number means more discolouration. The increase in colour intensity is not proportional but qualitative.
The colouration of flupirtine maleate and flupirtine mesilate has been observed at 60° C. and at 70° C. with the substance alone and in mixture with micro crystalline cellulose (MCC), with lactose or with dicalcium phosphate DiCaPhos (CaHPO4). The tests were performed under dry and neat conditions. Neat refers to saturated with moisture, i.e., 100% relative humidity (rh). […] Only with lactose moisture had to be avoided for the mesilate.

## CCOC(=O)Nc1ccc(NCc2ccc(F)cc2)nc1N.O=S(=O)(O)c1ccccc1 [Flupirtine besilate, 2-amino-3-carbethoxyamino-6-(4-fluoro-benzylamino)-pyridine Besilate]
[1]
  Bulk density: 358 ml/100 g substance
[2]
  solubility thermodynamic at 60 min: 32 µg/mL
[3]
  stability towards oxidation and towards discolouration: substantially improved stability
[4]
  decrease of area under the peak of the flupirtine signal: less than 0.1%
  Flupirtine signal after 14 days (area under the peak in, %): 96.87%
  Flupirtine signal after 0 days (area under the peak in, %): 96.93%

## CCOC(=O)Nc1ccc(NCc2ccc(F)cc2)nc1N.O=C(O)/C=C\C(=O)O [Flupirtine maleate A, reference compound]
[1]; listed as Maleate Form A
  Bulk density: 686 ml/100 g substance
[2]
  Solubility: 1.6 mg/100 ml water
[4]
  decrease of area under the peak of the flupirtine signal: 3.11%
  Flupirtine signal after 14 days (area under the peak in, %): 96.18%
  Flupirtine signal after 0 days (area under the peak in, %): 99.27%

## CCOC(=O)Nc1ccc(NCc2ccc(F)cc2)nc1N.CS(=O)(=O)O [Flupirtine mesilate, 2-amino-3-carbethoxyamino-6-(4-fluoro-benzylamino)-pyridine Mesilate]
[1]
  Bulk density: 478 ml/100 g substance
[2]
  solubility thermodynamic at 60 min: 52 µg/mL
[3]
  stability towards oxidation and towards discolouration: substantially improved stability
[5]
  discolouration compared to maleate: equal or less discolouration
[4]
  Flupirtine signal after 14 days (area under the peak in, %): 96.81%
  Flupirtine signal after 0 days (area under the peak in, %): 97.69%

## CCOC(=O)Nc1ccc(NCc2ccc(F)cc2)nc1N.Cc1ccc(S(=O)(=O)O)cc1 [Flupirtine tosilate, 2-amino-3-carbethoxyamino-6-(4-fluoro-benzylamino)-pyridine Tosilate]
[1]
  Bulk density: 420 ml/100 g substance

## CCOC(=O)Nc1ccc(NCc2ccc(F)cc2)nc1N.O=C(O)/C=C\C(=O)O [Maleate Form B, reference compound]
[1]
  Bulk density: 1634 ml/100 g substance
